The record followed here is patent US8987250B2 (Gilead Sciences, Inc., priority 2012, dated 2015).

The first experiment has as its system HIV-IIIb. Briefly: Test A: Antiviral Assay in MT4 Cells. It is filed as cell-based. Conditions: Human immunodeficiency virus 1, IIIB, MT4, 120 h. In outline:
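Read-out: CellTiter-Glo chemiluminescence after 5-day incubation at 37 °C. Compounds tested as 3-fold serial dilutions (10 concentrations, quadruplicate) in RPMI 1640 with 10% FBS, on MT-4 cells pre-infected at 37 °C with HIV-IIIb at 0.004 m.o.i.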
On to `Cc1cc2nc(-c3cccc(N4CCN(C(C)C)CC4)n3)sc2c(-c2ccc(Cl)cc2)c1[C@H](OC(C)(C)C)C(=O)O` [Compound 307, (S)-2-tert-butoxy-2-(7-(4-chlorophenyl)-2-(6-(4-isopropylpiperazin-1-yl)pyridin-2-yl)-5-methylbenzo[d]thiazol-6-yl)acetic acid], for which the EC50 (usually the concentration giving half of the maximal effect) amounted to 4 nM. Same read-out and setting: to `Cc1cc2nc(-c3nc(-c4ccc5c(cnn5C)c4)cs3)sc2c(-c2ccc(Cl)cc2)c1[C@H](OC(C)(C)C)C(=O)O` [Compound 310, (S)-2-tert-butoxy-2-(7-(4-chlorophenyl)-5-methyl-2-(4-(1-methyl-1H-indazol-5-yl)thiazol-2-yl)benzo[d]thiazol-6-yl)acetic acid] belongs 26 nM.

The experiment is the same for the next values; noted with them: Human immunodeficiency virus 1, IIIB, MT4, 120 h, Table 2; MT-4 cells infected with HIV-IIIb, 5 days of incubation, CellTiter-Glo; read-out: EC50.
With `Cc1cc2nc(-c3ccc4ncn(C)c4c3)sc2c(-c2ccc(Cl)cc2)c1[C@H](OC(C)(C)C)C(=O)O` [Compound 283, (S)-2-tert-butoxy-2-(7-(4-chlorophenyl)-5-methyl-2-(1-methyl-1H-benzo[d]imidazol-6-yl)benzo[d]thiazol-6-yl)acetic acid], the EC50 stood at 51 nM. Regarding `Cc1cc2nc(-c3ccc4c(c3)n(C)c(=O)n4C)sc2c(-c2ccc(Cl)cc2)c1[C@H](OC(C)(C)C)C(=O)O` [Compound 286, (S)-2-(tert-butoxy)-2-(7-(4-chlorophenyl)-2-(1,3-dimethyl-2-oxo-2,3-dihydro-1H-benzo[d]imidazol-5-yl)-5-methylbenzo[d]thiazol-6-yl)acetic acid], the EC50 turned out to be 10 nM. Still for that read-out and setting: to `Cc1cc2nc(-c3ccc4nc[nH]c4c3)sc2c(-c2ccc(Cl)cc2)c1[C@H](OC(C)(C)C)C(=O)O` [Compound 287, (S)-2-(2-(1H-benzo[d]imidazol-6-yl)-7-(4-chlorophenyl)-5-methylbenzo[d]thiazol-6-yl)-2-(tert-butoxy)acetic acid] belongs 113 nM; to `COc1cnc(-c2ccc3c(cnn3C)c2)cc1-c1nc2cc(C)c([C@H](OC(C)(C)C)C(=O)O)c(-c3ccc(Cl)cc3)c2s1` [Compound 288, (S)-2-(tert-butoxy)-2-(7-(4-chlorophenyl)-2-(5-methoxy-2-(1-methyl-1H-indazol-5-yl)pyridin-4-yl)-5-methylbenzo[d]thiazol-6-yl)acetic acid], 65 nM. Same read-out and setting: to `Cc1cnc(-c2ccc3c(cnn3C)c2)cc1-c1nc2cc(C)c([C@H](OC(C)(C)C)C(=O)O)c(-c3ccc(Cl)cc3)c2s1` [Compound 289, (S)-2-(tert-butoxy)-2-(7-(4-chlorophenyl)-5-methyl-2-(5-methyl-2-(1-methyl-1H-indazol-5-yl)pyridin-4-yl)benzo[d]thiazol-6-yl)acetic acid] belongs 25 nM; to `Cc1cc2nc(-c3cc(-c4ccc5c(cnn5C)c4)ncc3C(F)F)sc2c(-c2ccc(Cl)cc2)c1[C@H](OC(C)(C)C)C(=O)O` [Compound 290, (S)-2-(tert-butoxy)-2-(7-(4-chlorophenyl)-2-(5-(difluoromethyl)-2-(1-methyl-1H-indazol-5-yl)pyridin-4-yl)-5-methylbenzo[d]thiazol-6-yl)acetic acid], 87 nM.

For the molecule `Cc1cc2nc(-c3cc(-c4ccc5c(cnn5C)c4)ncc3F)sc2c(-c2ccc(Cl)cc2)c1[C@H](OC(C)(C)C)C(=O)O` [Compound 291, (S)-2-(tert-butoxy)-2-(7-(4-chlorophenyl)-2-(5-fluoro-2-(1-methyl-1H-indazol-5-yl)pyridin-4-yl)-5-methylbenzo[d]thiazol-6-yl)acetic acid], the EC50 came to 76 nM. Same read-out and setting: to `Cc1cc2nc(-c3ccc4nc(C)n(C)c4c3)sc2c(-c2ccc(Cl)cc2)c1[C@H](OC(C)(C)C)C(=O)O` [Compound 292, (S)-2-(tert-butoxy)-2-(7-(4-chlorophenyl)-2-(1,2-dimethyl-1H-benzo[d]imidazol-6-yl)-5-methylbenzo[d]thiazol-6-yl)acetic acid] belongs 23 nM; to `Cc1nc2c([nH]1)CCN(c1nc3cc(C)c([C@H](OC(C)(C)C)C(=O)O)c(-c4ccc(Cl)cc4)c3s1)C2` [Compound 293, (S)-2-tert-butoxy-2-(7-(4-chlorophenyl)-5-methyl-2-(2-methyl-6,7-dihydro-1H-imidazo[4,5-c]pyridin-5(4H)-yl)benzo[d]thiazol-6-yl)acetic acid], 215 nM. Still for that read-out and setting: the figure for `Cc1cc2nc(-c3ccc4c(c3)nc(C)n4C3CCN(C)CC3)sc2c(-c2ccc(Cl)cc2)c1[C@H](OC(C)(C)C)C(=O)O` [Compound 294, (S)-2-(tert-butoxy)-2-(7-(4-chlorophenyl)-5-methyl-2-(2-methyl-1-(1-methylpiperidin-4-yl)-1H-benzo[d]imidazol-5-yl)benzo[d]thiazol-6-yl)acetic acid] is 36 nM.

Regarding `Cc1cc2nc(-c3ccc4c(c3)ncn4C3CCN(C)CC3)sc2c(-c2ccc(Cl)cc2)c1[C@H](OC(C)(C)C)C(=O)O` [Compound 295, (S)-2-(tert-butoxy)-2-(7-(4-chlorophenyl)-5-methyl-2-(1-(1-methylpiperidin-4-yl)-1H-benzo[d]imidazol-5-yl)benzo[d]thiazol-6-yl)acetic acid], the EC50 stood at 34 nM. For the molecule `Cc1cc2nc(-c3ccc4nc(C)n([C@@H]5CCN(C)C5)c4c3)sc2c(-c2ccc(Cl)cc2)c1[C@H](OC(C)(C)C)C(=O)O` [Compound 296, (S)-2-tert-butoxy-2-(7-(4-chlorophenyl)-5-methyl-2-(2-methyl-1-((R)-1-methylpyrrolidin-3-yl)-1H-benzo[d]imidazol-6-yl)benzo[d]thiazol-6-yl)acetic acid], the EC50 worked out at 13 nM.

On to `Cc1cc2nc(-c3ccc4nc(C)n(C5CN(C)C5)c4c3)sc2c(-c2ccc(Cl)cc2)c1[C@H](OC(C)(C)C)C(=O)O` [Compound 297, (S)-2-tert-butoxy-2-(7-(4-chlorophenyl)-5-methyl-2-(2-methyl-1-(1-methylazetidin-3-yl)-1H-benzo[d]imidazol-6-yl)benzo[d]thiazol-6-yl)acetic acid], for which the EC50 is 17 nM.

For the molecule `Cc1cc2nc(-c3ccc4nc(C)n(C5CNC5)c4c3)sc2c(-c2ccc(Cl)cc2)c1[C@H](OC(C)(C)C)C(=O)O` [Compound 298, (S)-2-(2-(1-(azetidin-3-yl)-2-methyl-1H-benzo[d]imidazol-6-yl)-7-(4-chlorophenyl)-5-methylbenzo[d]thiazol-6-yl)-2-tert-butoxyacetic acid], the EC50 is 181 nM. Same read-out and setting: the figure for `Cc1cc2nc(-c3ccc4nc(C)n([C@@H]5CCNC5)c4c3)sc2c(-c2ccc(Cl)cc2)c1[C@H](OC(C)(C)C)C(=O)O` [Compound 299, (S)-2-tert-butoxy-2-(7-(4-chlorophenyl)-5-methyl-2-(2-methyl-1-((R)-pyrrolidin-3-yl)-1H-benzo[d]imidazol-6-yl)benzo[d]thiazol-6-yl)acetic acid] is 130 nM; for `Cc1cc2nc(-c3ccc4nc(C)n([C@@H]5CCN(C(C)C)C5)c4c3)sc2c(-c2ccc(Cl)cc2)c1[C@H](OC(C)(C)C)C(=O)O` [Compound 300, (S)-2-tert-butoxy-2-(7-(4-chlorophenyl)-2-(1-((R)-1-isopropylpyrrolidin-3-yl)-2-methyl-1H-benzo[d]imidazol-6-yl)-5-methylbenzo[d]thiazol-6-yl)acetic acid] it is 12 nM; for `Cc1cc2nc(-c3ccc4nc(C)n([C@H]5CCNC5)c4c3)sc2c(-c2ccc(Cl)cc2)c1[C@H](OC(C)(C)C)C(=O)O` [Compound 301, (S)-2-tert-butoxy-2-(7-(4-chlorophenyl)-5-methyl-2-(2-methyl-1-((S)-pyrrolidin-3-yl)-1H-benzo[d]imidazol-6-yl)benzo[d]thiazol-6-yl)acetic acid] it is 109 nM. `Cc1cc2nc(-c3cnc4c(c3)nc(C)n4C)sc2c(-c2ccc(Cl)cc2)c1[C@H](OC(C)(C)C)C(=O)O` [Compound 302, (S)-2-tert-butoxy-2-(7-(4-chlorophenyl)-2-(2,3-dimethyl-3H-imidazo[4,5-b]pyridin-6-yl)-5-methylbenzo[d]thiazol-6-yl)acetic acid]: the EC50 came out at 8 nM. The same measure, in the same setting: to `Cc1cc2nc(-c3ccc4c(c3)[nH]c(=O)n4C)sc2c(-c2ccc(Cl)cc2)c1[C@H](OC(C)(C)C)C(=O)O` [Compound 303, (S)-2-tert-butoxy-2-(7-(4-chlorophenyl)-5-methyl-2-(1-methyl-2-oxo-2,3-dihydro-1H-benzo[d]imidazol-5-yl)benzo[d]thiazol-6-yl)acetic acid] belongs 19 nM. Same read-out and setting: the figure for `Cc1cc2nc(-c3cnc(C)c(-c4ccc5c(cnn5C)c4)c3)sc2c(-c2ccc(Cl)cc2)c1[C@H](OC(C)(C)C)C(=O)O` [Compound 305, (S)-2-tert-butoxy-2-(7-(4-chlorophenyl)-5-methyl-2-(6-methyl-5-(1-methyl-1H-indazol-5-yl)pyridin-3-yl)benzo[d]thiazol-6-yl)acetic acid] is 10 nM; for `Cc1cc2nc(-c3cc(-c4ccc5c(cnn5C)c4)cnc3C)sc2c(-c2ccc(Cl)cc2)c1[C@H](OC(C)(C)C)C(=O)O` [Compound 306, (S)-2-tert-butoxy-2-(7-(4-chlorophenyl)-5-methyl-2-(2-methyl-5-(1-methyl-1H-indazol-5-yl)pyridin-3-yl)benzo[d]thiazol-6-yl)acetic acid] it is 14 nM; for `Cc1cc2nc(-c3cccc(N4CCN(C5COC5)CC4)n3)sc2c(-c2ccc(Cl)cc2)c1[C@H](OC(C)(C)C)C(=O)O` [Compound 308, (S)-2-tert-butoxy-2-(7-(4-chlorophenyl)-5-methyl-2-(6-(4-(oxetan-3-yl)piperazin-1-yl)pyridin-2-yl)benzo[d]thiazol-6-yl)acetic acid] it is 6 nM.

`Cc1cc2nc(-c3cccc(-c4ccc5c(cnn5C)c4)n3)sc2c(-c2ccc(Cl)cc2)c1[C@H](OC(C)(C)C)C(=O)O` [Compound 309, (S)-2-tert-butoxy-2-(7-(4-chlorophenyl)-5-methyl-2-(6-(1-methyl-1H-indazol-5-yl)pyridin-2-yl)benzo[d]thiazol-6-yl)acetic acid]: the EC50 was determined as 37 nM.
